According to US8822503B2, “2-pyridone compounds” (Taisho Pharmaceutical Co., Ltd, priority 2009, dated 2014):

Molecular target: T1, human liver GK (Homo sapiens, UniProt P35557)
T1 construct: GST (glutathione S-transferase) (N); made in house; host or cells: E. coli
T1 sequence (P35557 1-466 isoform P35557-2): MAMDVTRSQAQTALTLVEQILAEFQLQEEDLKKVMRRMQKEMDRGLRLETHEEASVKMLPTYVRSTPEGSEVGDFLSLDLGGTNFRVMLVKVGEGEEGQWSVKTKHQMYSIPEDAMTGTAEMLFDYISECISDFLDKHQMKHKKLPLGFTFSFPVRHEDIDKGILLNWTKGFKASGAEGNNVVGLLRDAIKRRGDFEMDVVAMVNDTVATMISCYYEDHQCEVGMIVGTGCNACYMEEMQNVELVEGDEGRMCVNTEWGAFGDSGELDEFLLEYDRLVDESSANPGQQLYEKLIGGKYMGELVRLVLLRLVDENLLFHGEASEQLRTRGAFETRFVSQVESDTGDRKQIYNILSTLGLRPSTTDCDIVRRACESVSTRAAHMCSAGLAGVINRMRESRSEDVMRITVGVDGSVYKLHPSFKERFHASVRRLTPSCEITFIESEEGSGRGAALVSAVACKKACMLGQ
Assay: GK activation test
Assay type: biochemical
Settings: test compound concentration needed to activate 50% of maximum activation ability; 4 mM 14C-labeled glucose, 2 mM ATP, room temperature, 20 minutes
Summary of the method: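 GST-tagged human liver GK from E. coli (0.24 μg/well) with 4 mM 14C-glucose, 2 mM ATP in Hepes-KOH pH 7.1, KCl, MgCl2, DTT, 1% DMSO, 20 min room temperature. Labeled glucose 6-phosphate captured on anion resin, eluted and counted. EC50 = concentration giving half of maximal activation.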

Row | SMILES | EC50 [nM]
1 | CCC(=O)N1CC[C@H](/C=C(\c2ccc(C(C)(C)C)cc2)c2ccc(Cl)c(=O)[nH]2)C1 [Example 4-68, 6-{(E)-1-(4-tert-Butylphenyl)-2-[(3R)-1-propanoylpyrrolidin-3-yl]ethenyl}-3-chloropyridin-2(1H)-one] | 10 to 500
2 | CC(C)(C)c1ccc(/C(=C\[C@H]2CCC(=O)N2)c2ccc(Cl)c(=O)[nH]2)cc1Cl [Example 4-71, 6-{(E)-1-(4-tert-Butyl-3-chlorophenyl)-2-[(2R)-5-oxopyrrolidin-2-yl]ethenyl}-3-chloropyridin-2(1H)-one] | 10 to 500
3 | CCS(=O)(=O)N1CC[C@H](/C=C(\c2ccc(C(C)(C)C)cc2)c2ccc(Cl)c(=O)[nH]2)C1 [Example 4-72, 6-{(E)-1-(4-tert-Butylphenyl)-2-[(3R)-1-(ethylsulfonyl)pyrrolidin-3-yl]ethenyl}-3-chloropyridin-2(1H)-one] | 10 to 500
4 | COCCCCc1ccc(/C(=C\[C@H]2CCC(=O)N2)c2ccc(Cl)c(=O)[nH]2)cc1 [Example 4-73, 3-Chloro-6-{(E)-1-[4-(4-methoxybutyl)phenyl]-2-[(2R)-5-oxopyrrolidin-2-yl]ethenyl}pyridin-2(1H)-one] | 500 to 3000
5 | CC(C)(C)c1ccc(/C(=C\[C@H]2CCC(=O)N2)c2ccc(C(F)(F)F)c(=O)[nH]2)cc1 [Example 4-74, 6-{(E)-1-(4-tert-Butylphenyl)-2-[(2R)-5-oxopyrrolidin-2-yl]ethenyl}-3-(trifluoromethyl)pyridin-2(1H)-one] | 10 to 500
6 | CC(C)(C)c1ccc(/C(=C\[C@@H]2CCC(=O)N2)c2ccc(Cl)c(=O)[nH]2)cc1 [Example 4-75, 6-{(E)-1-(4-tert-Butylphenyl)-2-[(2S)-5-oxopyrrolidin-2-yl]ethenyl}-3-chloropyridin-2(1H)-one] | 3000 to 10000
7 | O=C(C1CC1)N1CC[C@H](/C=C(\c2ccc(Cl)cc2)c2ccc(C3CC3)c(=O)[nH]2)C1 [Example 4-78, 6-{(E)-1-(4-Chlorophenyl)-2-[(3R)-1-(cyclopropylcarbonyl)pyrrolidin-3-yl]ethenyl}-3-cyclopropylpyridin-2(1H)-one] | 10 to 500
8 | CN1CCOc2cc(/C(=C\[C@H]3CCC(=O)N3)c3ccc(Cl)c(=O)[nH]3)ccc21 [Example 4-79, 3-Chloro-6-{(E)-1-(4-methyl-3,4-dihydro-2H-1,4-benzoxazin-7-yl)-2-[(2R)-5-oxopyrrolidin-2-yl]ethenyl}pyridin-2(1H)-one] | 500 to 3000
9 | CC(C)c1ccc([C@@H](C[C@H]2CCC(=O)N2)c2ccc(C3CC3)c(=O)[nH]2)cc1 [Example 4-80, 3-Cyclopropyl-6-{(1R)-2-[(2R)-5-oxopyrrolidin-2-yl]-1-[4-(propan-2-yl)phenyl]ethyl}pyridin-2(1H)-one] | 10 to 500
10 | CC(C)c1ccc(/C(=C\[C@H]2CCC(=O)N2)c2ccc(C3CC3)c(=O)[nH]2)cc1Cl [Example 4-81, 6-{(E)-1-[3-Chloro-4-(propan-2-yl)phenyl]-2-[(2R)-5-oxopyrrolidin-2-yl]ethenyl}-3-cyclopropylpyridin-2(1H)-one] | 10 to 500
11 | CC(C)c1ccc(/C(=C/[C@H]2CCC(=O)N2)c2ccc(Cl)c(=O)[nH]2)cc1 [Example 4-82, 3-Chloro-6-{(Z)-2-[(2R)-5-oxopyrrolidin-2-yl]-1-[4-(propan-2-yl)phenyl]ethenyl}pyridin-2(1H)-one] | 3000 to 10000
12 | CC(C)(C)c1ccc(/C(=C\[C@H]2CCC(=O)N2)c2ccc(C3CC3)c(=O)[nH]2)cc1 [Example 4-83, 6-{(E)-1-(4-tert-Butylphenyl)-2-[(2R)-5-oxopyrrolidin-2-yl]ethenyl}-3-cyclopropylpyridin-2(1H)-one] | 10 to 500
13 | CC(C)c1ccc(/C(=C\[C@H]2CCC(=O)N2)c2ccc(Cl)c(=O)[nH]2)cc1Cl [Example 4-84, 3-Chloro-6-{(E)-1-[3-chloro-4-(propan-2-yl)phenyl]-2-[(2R)-5-oxopyrrolidin-2-yl]ethenyl}pyridin-2(1H)-one] | 10 to 500
14 | O=C1CC[C@H](/C=C(\c2ccc(C3CC3)cc2)c2ccc(Cl)c(=O)[nH]2)N1 [Example 4-88, 3-Chloro-6-{(E)-1-(4-cyclopropylphenyl)-2-[(2R)-5-oxopyrrolidin-2-yl]ethenyl}pyridin-2(1H)-one] | 500 to 3000
15 | CN1CCN(S(=O)(=O)c2ccc(C(C[C@H]3CCC(=O)N3)c3ccc(Cl)c(=O)[nH]3)cc2)CC1 (stereo partly drawn) [Example 4-89, 3-Chloro-6-(1-{4-[(4-methylpiperazin-1-yl)sulfonyl]phenyl}-2-[(2R)-5-oxopyrrolidin-2-yl]ethyl)pyridin-2(1H)-one] | 3000 to 10000

Results, then the compound that gave them:

Row | EC50 [nM] | SMILES
16 | 500 to 3000 | O=C1CC[C@H](/C=C(\c2ccc(OC3CC3)cc2)c2ccc(Cl)c(=O)[nH]2)N1 [Example 4-90, 3-Chloro-6-{(E)-1-[4-(cyclopropyloxy)phenyl]-2-[(2R)-5-oxopyrrolidin-2-yl]ethenyl}pyridin-2(1H)-one]
17 | 10 to 500 | CC(C)(C)c1ccc(/C(=C\[C@H]2CCN(C(=O)C3CC3)C2)c2ccc(Cl)c(=O)[nH]2)cc1 [Example 4-92, 6-{(E)-1-(4-tert-Butylphenyl)-2-[(3R)-1-(cyclopropylcarbonyl)pyrrolidin-3-yl]ethenyl}-3-chloropyridin-2(1H)-one]
18 | 3000 to 10000 | CC(C)(C)c1ccc(/C(=C\[C@H]2CCN(C(=O)C3CCOCC3)C2)c2ccc(Cl)c(=O)[nH]2)cc1 [Example 4-93, 6-{(E)-1-(4-tert-Butylphenyl)-2-[(3R)-1-(tetrahydro-2H-pyran-4-ylcarbonyl)pyrrolidin-3-yl]ethenyl}-3-chloropyridin-2(1H)-one]
19 | 10 to 500 | O=C1CC[C@H](/C=C(\c2ccc(Cl)cc2)c2ccc(C3CC3)c(=O)[nH]2)N1 [Example 4-98, 6-{(E)-1-(4-Chlorophenyl)-2-[(2R)-5-oxopyrrolidin-2-yl]ethenyl}-3-cyclopropylpyridin-2(1H)-one]
20 | 10 to 500 | O=C1CC[C@H](/C=C(\c2ccc(C(F)(F)F)cc2)c2ccc(C3CC3)c(=O)[nH]2)N1 [Example 4-99, 3-Cyclopropyl-6-{(E)-2-[(2R)-5-oxopyrrolidin-2-yl]-1-[4-(trifluoromethyl)phenyl]ethenyl}pyridin-2(1H)-one]
21 | 500 to 3000 | O=C1CC[C@H](/C=C(\c2ccc(F)cc2)c2ccc(C3CC3)c(=O)[nH]2)N1 [Example 4-100, 3-Cyclopropyl-6-{(E)-1-(4-fluorophenyl)-2-[(2R)-5-oxopyrrolidin-2-yl]ethenyl}pyridin-2(1H)-one]
22 | 10 to 500 | O=C1CC[C@H](/C=C(\c2ccc(Cl)c(Cl)c2)c2ccc(C3CC3)c(=O)[nH]2)N1 [Example 4-101, 3-Cyclopropyl-6-{(E)-1-(3,4-dichlorophenyl)-2-[(2R)-5-oxopyrrolidin-2-yl]ethenyl}pyridin-2(1H)-one]
23 | 10 to 500 | Cc1ccc(/C(=C\[C@H]2CCC(=O)N2)c2ccc(C3CC3)c(=O)[nH]2)c(F)c1 [Example 4-102, 3-Cyclopropyl-6-{(E)-1-(2-fluoro-4-methylphenyl)-2-[(2R)-5-oxopyrrolidin-2-yl]ethenyl}pyridin-2(1H)-one]
24 | 10 to 500 | O=C1CC[C@H](/C=C(\c2ccc(C(F)(F)F)c(Cl)c2)c2ccc(C3CC3)c(=O)[nH]2)N1 [Example 4-103, 6-{(E)-1-[3-Chloro-4-(trifluoromethyl)phenyl]-2-[(2R)-5-oxopyrrolidin-2-yl]ethenyl}-3-cyclopropylpyridin-2(1H)-one]
